Reference: patent US9834542B2, “LXR modulators” (BRISTOL-MYERS SQUIBB COMPANY, priority 2013, dated 2017)

Molecular target: T1, LXRβ (Homo sapiens, UniProt P55055)
T1 construct: Co-transfection expression plasmids, comprising full-length LXRα (pCMX-h LXRα[…] or LXRβ (pCMX-hLXRβ)); expressed in transfected cells; host or cells: CV-1 African Green Monkey Kidney Cells
T1 sequence (P55055 1-460): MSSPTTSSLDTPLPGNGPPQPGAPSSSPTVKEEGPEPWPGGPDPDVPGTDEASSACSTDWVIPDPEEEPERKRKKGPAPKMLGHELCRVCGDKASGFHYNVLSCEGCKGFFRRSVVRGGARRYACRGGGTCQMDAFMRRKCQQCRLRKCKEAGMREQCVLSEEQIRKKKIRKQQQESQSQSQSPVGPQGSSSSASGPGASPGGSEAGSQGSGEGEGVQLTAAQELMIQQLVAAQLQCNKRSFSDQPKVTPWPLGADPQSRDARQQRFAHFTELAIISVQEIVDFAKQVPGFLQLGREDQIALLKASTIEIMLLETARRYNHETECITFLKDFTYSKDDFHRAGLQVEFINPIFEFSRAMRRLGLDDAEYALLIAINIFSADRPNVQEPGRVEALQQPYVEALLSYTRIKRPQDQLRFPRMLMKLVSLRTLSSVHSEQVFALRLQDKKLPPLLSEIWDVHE
T1 sequence (P19793 1-462 partner): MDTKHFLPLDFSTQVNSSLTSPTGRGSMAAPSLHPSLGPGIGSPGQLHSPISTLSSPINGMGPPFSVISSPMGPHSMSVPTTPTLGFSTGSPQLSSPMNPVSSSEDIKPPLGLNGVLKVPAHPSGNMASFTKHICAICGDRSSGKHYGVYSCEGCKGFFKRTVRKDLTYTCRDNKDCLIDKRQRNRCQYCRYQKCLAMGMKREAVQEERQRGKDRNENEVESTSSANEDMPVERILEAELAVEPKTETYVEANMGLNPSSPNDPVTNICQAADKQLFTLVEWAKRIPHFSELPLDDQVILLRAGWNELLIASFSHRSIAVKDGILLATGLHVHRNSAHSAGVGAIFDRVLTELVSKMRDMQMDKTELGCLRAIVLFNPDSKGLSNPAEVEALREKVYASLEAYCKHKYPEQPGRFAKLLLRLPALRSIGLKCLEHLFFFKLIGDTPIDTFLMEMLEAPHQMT
Experiment: Co-transfection assay (LXRE luciferase reporter), LXRβ
Assay type: cell-based
Conditions: for EC50: CV-1 cells transfected with pCMX-hLXRβ and LXREx1-Tk-Luciferase, 20 hours incubation; for Emax: LXRβ co-transfection, relative to high control 1-(2,4-difluorobenzyl)-2-oxo-6-(4-phenoxyphenyl)-4-(trifluoromethyl)-1,2-dihydropyridine-3-carbonitrile, read-out: % Efficacy
How it was run: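 Cell-based LXRβ agonism measured as LXRE-luciferase induction in transiently transfected CV-1 cells after 20 h treatment. Potency is the curve-fit EC50; efficacy is expressed as percent of a full-agonist control's maximal response.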

Row | Compound | EC50 | Emax
1 | Cc1nc(-c2cc(-c3cccc(S(C)(=O)=O)c3)ccc2-n2cc(C(F)(F)F)nc2C)c(-c2cccc(OC(F)(F)C(F)(F)F)c2)o1 [Example 574, 2-methyl-4-(4-(2-methyl-4-(trifluoromethyl)-1H-imidazol-1-yl)-3′-(methylsulfonyl)-[1,1′-biphenyl]-3-yl)-5-(3-(perfluoroethoxy)phenyl)oxazole] | 233 nM | 63%
2 | Cc1nc(C(F)(F)F)cn1-c1ccc(-c2cccc(S(C)(=O)=O)c2)cc1-n1nncc1-c1ccc2c(c1)OCO2 [Example 29, 5-(1,3-benzodioxol-5-yl)-1-{3′-(methylsulfonyl)-4-[2-methyl-4-(trifluoromethyl)-1H-imidazol-1-yl]biphenyl-3-yl}-1H-1,2,3-triazole] | 605 nM | 65%
3 | Cc1nc(-c2cc(-c3ccc(CO)c(S(C)(=O)=O)c3)ccc2-n2cc(C(F)(F)F)nc2C)c(-c2ccc(OC(F)F)cc2)o1 [Example 497, (3′-(5-(4-(difluoromethoxy)phenyl)-2-methyloxazol-4-yl)-4′-(2-methyl-4-(trifluoromethyl)-1H-imidazol-1-yl)-3-(methylsulfonyl)biphenyl-4-yl)methanol] | 88 nM | 124%
4 | Cc1nc(-c2cc(-c3cc(F)c(CO)c(S(C)(=O)=O)c3)ccc2-n2cc(C(F)(F)F)nc2C)c(-c2cccn(C(C)C)c2=O)o1 [Example 378, 3-(4-(3′-fluoro-4′-(hydroxymethyl)-4-(2-methyl-4-(trifluoromethyl)-1H-imidazol-1-yl)-5′-(methylsulfonyl)biphenyl-3-yl)-2-methyloxazol-5-yl)-1-isopropylpyridin-2(1H)-one] | 49 nM | 24%
5 | Cc1nc(C(F)(F)F)cn1-c1ccc(-c2cccc(S(C)(=O)=O)c2)cc1-c1ccnn1-c1ccc(Cl)nc1 [Example 296, 2-chloro-5-(5-(4-(2-methyl-4-(trifluoromethyl)-1H-imidazol-1-yl)-3′-(methylsulfonyl)biphenyl-3-yl)-1H-pyrazol-1-yl)pyridine] | 572 nM | 75%
6 | Cc1nc(C(F)(F)F)cn1-c1ccc(-c2cccc(S(C)(=O)=O)c2)cc1-c1nc(CCO)oc1-c1ccc2c(c1)OC(F)(F)O2 [Example 531] | 422 nM | 74%
7 | Cc1nc(C(F)(F)F)cn1-c1ccc(-c2cccc(S(C)(=O)=O)c2)cc1-n1nncc1-c1ccc(F)cc1 [Example 43, 5-(4-fluorophenyl)-1-{3′-(methylsulfonyl)-4-[2-methyl-4-(trifluoromethyl)-1H-imidazol-1-yl]biphenyl-3-yl}-1H-1,2,3-triazole] | 1140 nM | 85%
8 | Cc1nc(C(F)(F)F)cn1-c1ccc(-c2cccc(S(C)(=O)=O)c2)cc1-n1nncc1-c1ccc(F)c(OC(F)(F)F)c1 [Example 46, 5-{4-fluoro-3-[(trifluoromethyl)oxy]phenyl}-1-{3′-(methylsulfonyl)-4-[2-methyl-4-(trifluoromethyl)-1H-imidazol-1-yl]biphenyl-3-yl}-1H-1,2,3-triazole] | 2310 nM | 62%
9 | Cc1nc(C(F)(F)F)cn1-c1ccc(-c2ccc(CCO)c(S(C)(=O)=O)c2)cc1-n1nncc1-c1ccc(OC(F)(F)F)cc1 [Example 236, 2-(4′-(2-methyl-4-(trifluoromethyl)-1H-imidazol-1-yl)-3-(methylsulfonyl)-3′-(5-(4-(trifluoromethoxy)phenyl)-1H-1,2,3-triazol-1-yl)-[1,1′-biphenyl]-4-yl)ethanol] | 198 nM | 89%
10 | COc1ccc(-c2ccc(-n3cc(C(F)(F)F)nc3C)c(-n3nncc3-c3ccc(OC(F)(F)F)cc3)c2)cc1S(C)(=O)=O [Example 94, 1-{4′-(methyloxy)-3′-(methylsulfonyl)-4-[2-methyl-4-(trifluoromethyl)-1H-imidazol-1-yl]biphenyl-3-yl}-5-{4-[(trifluoromethyl)oxy]phenyl}-1H-1,2,3-triazole] | 2340 nM | 71%
11 | Cc1nc(C(F)(F)F)cn1-c1ccc(-c2cccc(S(C)(=O)=O)c2)cc1-n1nncc1-c1ccc(Cl)c(C(F)(F)F)c1 [Example 64, 5-[4-chloro-3-(trifluoromethyl)phenyl]-1-{3′-(methylsulfonyl)-4-[2-methyl-4-(trifluoromethyl)-1H-imidazol-1-yl]biphenyl-3-yl}-1H-1,2,3-triazole] | 289 nM | 86%
12 | Cc1nc(C(F)(F)F)cn1-c1ccc(-c2cccc(S(C)(=O)=O)c2)cc1-n1nncc1-c1ccc(C(C)C)cc1 [Example 72, 5-[4-(1-methylethyl)phenyl]-1-{3′-(methylsulfonyl)-4-[2-methyl-4-(trifluoromethyl)-1H-imidazol-1-yl]biphenyl-3-yl}-1H-1,2,3-triazole] | 473 nM | 80%
13 | Cc1nc(C(F)(F)F)cn1-c1ccc(-c2cccc(S(C)(=O)=O)c2)cc1-n1nncc1-c1cccc(OC(F)F)c1 [Example 37, 5-{3-[(difluoromethyl)oxy]phenyl}-1-{3′-(methylsulfonyl)-4-[2-methyl-4-(trifluoromethyl)-1H-imidazol-1-yl]biphenyl-3-yl}-1H-1,2,3-triazole] | 758 nM | 96%
14 | Cc1nc(C(C)(F)F)cn1-c1ccc(-c2cccc(S(C)(=O)=O)c2)cc1-n1nncc1-c1ccc(Cl)cc1Cl [Example 180, 5-(2,4-dichlorophenyl)-1-{4-[4-(1,1-difluoroethyl)-2-methyl-1H-imidazol-1-yl]-3′-(methylsulfonyl)biphenyl-3-yl}-1H-1,2,3-triazole] | 606 nM | 48%
15 | Cc1nc(-c2cc(-c3cc(F)c(CO)c(S(C)(=O)=O)c3)ccc2-n2cc(C(F)(F)F)nc2C)c(-c2ccc(OC(F)F)nc2)o1 [Example 385, (3′-(5-(6-(difluoromethoxy)pyridin-3-yl)-2-methyloxazol-4-yl)-3-fluoro-4′-(2-methyl-4-(trifluoromethyl)-1H-imidazol-1-yl)-5-(methylsulfonyl)biphenyl-4-yl)methanol] | 15 nM | 79%
16 | Cc1nc(-c2ccc(OC(F)(F)F)cc2)c(-c2cc(-c3ccc(CO)c(S(C)(=O)=O)c3)ccc2-n2cc(C(F)(F)F)nc2C)o1 [Example 607, (3′-(2-methyl-4-(4-(trifluoromethoxy)phenyl)oxazol-5-yl)-4′-(2-methyl-4-(trifluoromethyl)-1H-imidazol-1-yl)-3-(methylsulfonyl)-[1,1′-biphenyl]-4-yl)methanol] | 46 nM | 92%
17 | Cc1nc(C(F)(F)F)cn1-c1ccc(-c2cccc(S(N)(=O)=O)c2)cc1-n1nncc1-c1ccc(OC(F)(F)F)cc1 [Example 44, 4′-[2-methyl-4-(trifluoromethyl)-1H-imidazol-1-yl]-3′-(5-{4-[(trifluoromethyl)oxy]phenyl}-1H-1,2,3-triazol-1-yl)biphenyl-3-sulfonamide] | 1270 nM | 95%
18 | Cc1nc(C(F)(F)F)c(Cl)n1-c1ccc(-c2cccc(S(C)(=O)=O)c2)cc1-n1nncc1-c1ccc(Cl)cc1Cl [Example 59, 1-{4-[5-chloro-2-methyl-4-(trifluoromethyl)-1H-imidazol-1-yl]-3′-(methylsulfonyl)biphenyl-3-yl}-5-(2,4-dichlorophenyl)-1H-1,2,3-triazole] | 218 nM | 95%
19 | Cc1nc(C(F)(F)F)cn1-c1ccc(-c2cccc(S(C)(=O)=O)c2)cc1-n1nncc1Cc1cccc(OC(F)(F)F)c1 [Example 116, 1-{3′-(methylsulfonyl)-4-[2-methyl-4-(trifluoromethyl)-1H-imidazol-1-yl]biphenyl-3-yl}-5-({3-[(trifluoromethyl)oxy]phen-yl}methyl)-1H-1,2,3-triazole] | 982 nM | 59%
20 | Cc1nc(C(F)(F)F)cn1-c1ccc(-c2cc(F)c(CO)c(S(C)(=O)=O)c2)cc1-n1nncc1-c1ccc(Cl)cc1Cl [Example 67, {3′-[5-(2,4-dichlorophenyl)-1H-1,2,3-triazol-1-yl]-3-fluoro-5-(methylsulfonyl)-4′-[2-methyl-4-(trifluoromcehyl)-1H-imidazol-1-yl]biphenyl-4-yl}methanol] | 127 nM | 81%
21 | Cc1ccc(-c2oc(C)nc2-c2cc(-c3cccc(S(C)(=O)=O)c3)ccc2-n2cc(C(F)(F)F)nc2C)c(Cl)n1 [Example 422, 5-(2-chloro-6-methylpyridin-3-yl)-2-methyl-4-(4-(2-methyl-4-(trifluoromethyl)-1H-imidazol-1-yl)-3′-(methylsulfonyl)biphenyl-3-yl)oxazole] | 110 nM | 74%
